pIC50: −log10 of the molar value. Structures can show the parent of a compound that is named as a salt. *1 amine or outer side, *2 acyl side, *3 side chain or, on linkers, in order; H or OH if unused. Where a SMILES comes first, the peptide text is derived from it. Bridges are numbered along the chain shown (N, C = ends). [ ]: non-standard residue; d: D form. The star is where a group is joined. pTerphenylCO(4''-OnC5H11) = CCCCCOc1ccc(-c2ccc(-c3ccc(C(=O)*)cc3)cc2)cc1; Orn(4R-OH,5R-OH) = O=C([C@H](C[C@@H](O)[C@@H](O)N[*:3])N[*:1])[*:2]; hTyr(3S-OH,4S-OH) = N[C@H](C(=O)O)[C@H](O)[C@@H](O)c1ccc(O)cc1; Pro(3S-OH,4S-Me) = C[C@H]1CN[C@H](C(=O)O)[C@H]1O; Hyp = O=C(O)[C@@H]1C[C@@H](O)CN1
Assays:
[1] = system: SARS-CoV-2 spike protein pseudovirus; assay: microbe, parasite or virus in culture; type: cell-based; settings: for activity at 10 µM: 293T/ACE2, 48 h, read-out: % Infectivity of SARS-2-Spike pv; for pIC50: 293T/ACE2, read-out: IC50 of SARS-CoV-2-S pseudovirus infectivity
[2] = system: VSV-G pseudovirus; assay: microbe, parasite or virus in culture; type: cell-based, vesicular stomatitis virus; settings: Pseudovirus, 293T/ACE2, read-out: % Infectivity of VSV-G pv
[3] = in vitro; settings: human

**Q.** Which results are given for CCCCCOc1ccc(-c2ccc(-c3ccc(C(=O)N[C@H]4C[C@@H](O)[C@@H](O)NC(=O)[C@@H]5[C@@H](O)[C@@H](C)CN5C(=O)[C@H]([C@@H](C)O)NC(=O)[C@H]([C@H](O)[C@@H](O)c5ccc(O)cc5)NC(=O)[C@@H]5C[C@@H](O)CN5C(=O)[C@H]([C@@H](C)O)NC4=O)cc3)cc2)cc1 [anidulafungin] ({pTerphenylCO(4''-OnC5H11)}-[Orn(4R-OH,5R-OH)]T[Hyp][hTyr(3S-OH,4S-OH)]T[Pro(3S-OH,4S-Me)]; lactam 1-C)?
**A.** activity at 10 µM [1]: 19%; activity at 10 µM [2]: 125%; viability ([3]; % Viability of SARS-2-Spike pv): 109%

**Q.** For CN1CCC(OC(c2ccccc2)c2ccccc2)CC1 [diphenylpyraline HCl], which activity at 10 µM [1] is on record?
**A.** 15%

**Q.** And the activity at 10 µM [2]?
**A.** 108%

**Q.** What about the viability ([3]; % Viability of SARS-2-Spike pv) of the same molecule?
**A.** 106%

**Q.** Which results are given for CN1CCN(CCCN2c3ccccc3Sc3ccc(Cl)cc32)CC1 [prochlorperazine]?
**A.** activity at 10 µM [1]: 16%; activity at 10 µM [2]: 80%; viability ([3]; % Viability of SARS-2-Spike pv): 94%

**Q.** With O=C(O[C@H]1CN2CCC1CC2)N1CCc2ccccc2[C@@H]1c1ccccc1 [solifenacin succinate] as the molecule, how does the activity at 10 µM [1] read?
**A.** 12%

**Q.** What about the activity at 10 µM [2] of the same molecule?
**A.** 86%

**Q.** What about the viability [3] of the same molecule?
**A.** 99%

**Q.** With CN(C)CCCN1c2ccccc2CCc2ccc(Cl)cc21 [clomipramine HCl] as the molecule, how does the activity at 10 µM [1] read?
**A.** 9%

**Q.** What about the activity at 10 µM [2] of the same molecule?
**A.** 78%

**Q.** What about the viability ([3]; % Viability of SARS-2-Spike pv) of the same molecule?
**A.** 115%

**Q.** With CN1CCCC(n2nc(Cc3ccc(Cl)cc3)c3ccccc3c2=O)CC1 (stereo not drawn) [azelastine HCl] as the molecule, how does the activity at 10 µM [1] read?
**A.** 4%

**Q.** What about the pIC50 [1] of the same molecule?
**A.** 5.32

**Q.** What about the activity at 10 µM [2] of the same molecule?
**A.** 81%

**Q.** What about the viability ([3]; % Viability of SARS-2-Spike pv) of the same molecule?
**A.** 98%

**Q.** Which results are given for CC(CN1c2ccccc2Sc2ccccc21)N(C)C (stereo not drawn) [promethazine HCl]?
**A.** activity at 10 µM [1]: 11%; activity at 10 µM [2]: 107%; viability ([3]; % Viability of SARS-2-Spike pv): 99%

**Q.** What does the source list for CCOC(=O)c1ccc(C#Cc2ccc3c(c2)C(C)(C)CCS3)nc1 [tazarotene]?
**A.** activity at 10 µM [1]: 225%; activity at 10 µM [2]: 102%; viability ([3]; % Viability of SARS-2-Spike pv): 107%

**Q.** Which results are given for COc1cc2c(Oc3ccc(NC(=O)C4(C(=O)Nc5ccc(F)cc5)CC4)cc3F)ccnc2cc1OCCCN1CCOCC1 [Foretinib (GSK1363089), Foretinib]?
**A.** activity at 10 µM [1]: 10%; activity at 10 µM [2]: 11%; viability ([3]; % Viability of SARS-2-Spike pv): 63%

**Q.** Which results are given for O=C(c1ccc(OCCN2CCCCC2)cc1)c1c(-c2ccc(O)cc2)sc2cc(O)ccc12 [raloxifene HCl]?
**A.** activity at 10 µM [1]: 5%; pIC50 [1]: 5.24; activity at 10 µM [2]: 65%; viability ([3]; % Viability of SARS-2-Spike pv): 92%

**Q.** Which results are given for CN(C)CCCN1c2ccccc2CCc2ccccc21 [imipramine]?
**A.** activity at 10 µM [1]: 16%; activity at 10 µM [2]: 84%; viability ([3]; % Viability of SARS-2-Spike pv): 99%

**Q.** What does the source list for Clc1ccc2c(c1)C(N1CCNCC1)=Nc1ccccc1O2 [amoxapine]?
**A.** activity at 10 µM [1]: 20%; activity at 10 µM [2]: 95%; viability ([3]; % Viability of SARS-2-Spike pv): 103%

**Q.** Which activity at 10 µM [1] does the source give for CC/C(=C(\c1ccccc1)c1ccc(OCCN(C)C)cc1)c1ccccc1 [tamoxifen citrate] here?
**A.** 10%

**Q.** What about the activity at 10 µM [2] of the same molecule?
**A.** 81%

**Q.** What about the viability ([3]; % Viability of SARS-2-Spike pv) of the same molecule?
**A.** 107%

**Q.** Which activity at 10 µM [1] does the source give for CC1CCC2(OC1)OC1CC3C4CCC5CC(OC6OC(CO)C(O)C(O)C6OC6OC(CO)C(O)C(O)C6O)CCC5(C)C4CCC3(C)C1C2C (stereo not drawn) [Timosaponin A3] here?
**A.** 5%

**Q.** What about the activity at 10 µM [2] of the same molecule?
**A.** 85%

**Q.** What about the viability ([3]; % Viability of SARS-2-Spike pv) of the same molecule?
**A.** 55%

**Q.** With CCc1cnn2c(NCc3ccc[n+]([O-])c3)cc(N3CCCC[C@H]3CCO)nc12 [dinaciclib] as the molecule, how does the activity at 10 µM [1] read?
**A.** 0%

**Q.** And the activity at 10 µM [2]?
**A.** 1%

**Q.** And the viability ([3]; % Viability of SARS-2-Spike pv)?
**A.** 55%

**Q.** Which activity at 10 µM [1] does the source give for COc1cc2c(Oc3ccc4[nH]c(C)cc4c3F)ncnc2cc1OCCCN1CCCC1 [cediranib (AZD217), cediranib] here?
**A.** 5%

**Q.** What about the activity at 10 µM [2] of the same molecule?
**A.** 42%

**Q.** And the viability ([3]; % Viability of SARS-2-Spike pv)?
**A.** 85%

**Q.** Which results are given for c1cn2cc(-c3ccc4cn[nH]c4c3)nc(Nc3ccc(N4CCOCC4)cc3)c2n1 [GS-9973]?
**A.** activity at 10 µM [1]: 0%; activity at 10 µM [2]: 1%; viability [3]: 69%

**Q.** Which results are given for COc1cc(Nc2ncc3c(n2)-c2ccc(Cl)cc2C(c2c(F)cccc2OC)=NC3)ccc1C(=O)O [MLN8237 (Alisertib), Alisertib]?
**A.** activity at 10 µM [1]: 15 to 18%; activity at 10 µM [2]: 18%; viability at 10 µM [3]: 63%; viability ([3]; % Viability of SARS-2-Spike pv): 63 to 83%

**Q.** Which activity at 10 µM [1] does the source give for CN1[C@@H]2CC[C@H]1C[C@@H](OC(c1ccccc1)c1ccccc1)C2 [benztropine mesylate] here?
**A.** 10%

**Q.** And the activity at 10 µM [2]?
**A.** 93%

**Q.** And the viability ([3]; % Viability of SARS-2-Spike pv)?
**A.** 96%
